Reference: patent US20100280231A1, “WHITENING AGENT COMPRISING EQUOL OR ITS SACCHARIDE DERIVATIVE AS AN EFFECTIVE INGREDIENT” (priority 2007, published 2010)
Like-named read-outs stand apart in the source and are kept apart here.

Columns and labels:
Mouse B16 melanoma cells = assay: Test of whitening effect in vitro (melanin production); type: cell-based; parameters: key to Determination of whitening effect: −: Not changed; ±: Slightly whitened; +: A little whitened; ++: Significantly whitened; +++: Completely whitened; settings: for Determination of whitening effect: B16 melanoma cells, 4 days; for Melanin Production: negative control 73.9; for EC50: Mus musculus, B16, concentration giving half of the melanin production of the negative control, read-out: ED50 (the source's name)
Experimental: Three equol glycoside preparation prepared in Experiment 1, i.e. the solution containing reaction products (a solution containing 4′-O-α-D-glucopyranosyl-S-equol and 7-O-α-D-glucopyranosyl-S-equol, hereinafter, described as “equol glycoside containing solution”), 4′-O-α-D-glucopyranosyl-S-equol and 7-O-α-D-glucopyranosyl-S-equol, and the equol used in Experiment 1 were used as test samples, and the following experiment was carried out to determine their whitening effect. Mouse B16 melanoma cells suspended in RPMI-1640 medium containing 10 v/v % fetal calf serum (hereinafter, abbreviated as “FCS”) were inoculated into “6-MULTIWELL MICROPLATE” (6-well microplate commercialized by Becton, Dickinson and Company) to give a cell concentration of 4×10^4 cells/well. After the cells were adhered to the bottom of well, the culture supernatant was removed. The cells were admixed with equol or any one of the three equol glycoside samples, diluted with the same medium to give the concentration described in Table 2, and then cultured at 37° C. in an atmosphere of 5 v/v % CO2 for four days. The cells were collected after admixed with trypsin-EDTA, washed once with Dulbecco's PBS (−) (hereinafter, abbreviated as “D-PBS”), and then dissolved in 1N-sodium hydroxide. A part of the solution was used to determine the amount of protein. The above alkaline solution was boiled for 30 minutes and the amount of melanin was measured. […] Also ED50 (the concentration of the test sample giving half of the melanin production in the cell cultured with negative control) is shown in Table 2. The medium alone was used as negative control, and koji acid, which has been used as a whitening substance for external dermatological composition, was used as positive control at the concentration described in Table 2 (0.5 to 2 mM), to evaluate the whitening effect. The evaluation of whitening effect and measurement of melanin, protein and equol glycosides were carried out as follows.
The melanin production was determined by comparing the absorbance at 450 nm (reference 650 nm) of each alkaline solution to that of melanin standard (Sigma Corporation), measured with “MICROPLATE READER M-Vmax” (commercialized by Wako Pure Chemical Industries Co., Ltd.).
The amount of protein was determined by Bradford method using human serum album bumin as standard.
The concentration of equol glycoside in the powdery product used in the following experiments were determined by the same method as used in Experiment 1, based on the molar absorption coefficient of equol measured at UV 280 nm.

[1] = tested on: skin of the upper arm of volunteers; settings: human, in vivo
[2] = tested on: mouse 3T3-L1 cell line (precursor lipocyte); assay: Effect on differentiation of precursor lipocyte into lipocyte (oil red O staining); type: cell-based; settings: for Concentration enhancing differentiation of precursor lipocyte into mature lipocyte: Table 3, compared to control; for Enhancing effect on differentiation into lipocyte: with 10 μg/ml insulin, 12 days, relative absorbance, control = 100%, * p < 0.05 vs control
Experimental: It is known that mouse 3T3-L1 cell line (precursor lipocyte) differentiates into mature lipocyte when cultured in the presence of a differentiation inducer, and accumulates oil droplet in the cell according to the progress of differentiation. The mouse 3T3-Li cells were suspended in a medium, which is Dulbecco's MEM medium (hereinafter, abbreviated as “D-MEM”) supplemented with FCS (final concentration of 10 v/v %) and glucose (final concentration of 3 mg/ml), (hereinafter, described as “regular medium”) to give a cell concentration of 2.5×10^4 cells/well, and inoculated to “CELL CULTURE 24-MULTIWELL MICROPLATE” (24-well microplate coated with collagen type 1, commercialized by Becton, Dickinson and Company) by 1 ml/well. After the cells were cultured at 37° C. in an atmosphere of 5 v/v % CO2 for two days, the supernatant was removed and the remaining cells were admixed with a medium containing 10 μg/ml insulin and equol or equol glycosides dissolved in 50% ethanol, to give a concentration in Table 3, by 1 ml/well and then cultured for 12 days while replacing the medium every two or three days. After each well of the plate was washed with “D-PBS” three times, D-PBS containing 10% formalin was added by 0.2 ml/well, and then the cell was placed at 4° C. for one hour for fixation. After the fixing fluid was removed, a staining fluid of oilred O was added by 0.15 ml/well, and allowed to react at ambient temperature for 15 minutes to stain the lipid droplet in 3T3-L1 cell. After the staining fluid was removed, each well was washed with distilled water three times, and then the plate was dried. After the pigment in each well was dissolved in 0.4 ml of isopropanol, the absorbance of the resulting solution was measured at 490. The progress of the cell differentiation was expressed with relative absorbance to the absrobance of the cell cultured with control regarded as 100%.

[3] = tested on: mouse 3T3-L1 cells differentiated into mature cells; assay: Test for lipid hydrolysis (glycerol release from mature lipocytes); type: cell-based; settings: for Enhancing effect on lipid hydrolysis: glycerol per cell protein, 6 hours, control 274, * p < 0.05 vs control
Experimental: After the culture supernatant of mouse 3T3-L1 cells cultured under the same condition described above was removed, a regular medium containing 5 μg/ml insulin, 0.25 μM dexamethasone and 0.5 mM 3-isobutyl-1-methylxanthin was added by 1 ml/well, and then the cells were cultured for two days to differentiate into mature cells. After the supernatant was removed, the cells were washed with D-PBS three times and cultured with regular medium for 12 days while replacing the medium every two or three days by 1 ml/well. After the supernatant was removed and the cells were washed with D-PBS two times, a solution containing equol or equol glycosides diluted with D-MEM containing 1% bovine serum albumin to give the concentration described in Table 4 was added by 0.25 ml/well, and then the cell was cultured for 6 hours. After the supernatant was collected, the amount of glycerol was measured to determine the amount of the degraded lipid. After the supernatant was removed and the cells were washed with D-PBS three times, D-PBS containing 0.25% Triton X-100 was added to collect the cells, and then the cells were sonicated to give a cell-dissolving solution. The amount of protein of the sonicated cells was measured by Bradford method as in Experiment 3, and the amount of glycerol per cell protein representing degree of lipid degradation was shown in Table 3. The amount of glycerol was measured with “GLYCEROL REGENT A” (glycerol measurement kit commercialized by Zen-Bio, Inc.).

[4] = tested on: skin of the upper arm of volunteers; assay: Safety test, application on the upper arm of volunteers; settings: 3 parts by weight (equol equivalent) in ethanol/glycerol/water base, 1-cm square, three times a day for three days, five volunteers each, observed for the next week
estrogen-receptor = settings: Kenneth D. R. et al., Am. J. Clin. Nutr. 81, 1072-1079 (2005); cited from earlier work

Row | Compound | Determination of whitening effect (Mouse B16 melanoma cells; sample concentration 5 μM) | Determination of whitening effect (Mouse B16 melanoma cells; sample concentration 10 μM) | Determination of whitening effect (Mouse B16 melanoma cells; sample concentration 20 μM) | Melanin Production (Mouse B16 melanoma cells; sample concentration 5 μM) | Melanin Production (Mouse B16 melanoma cells; sample concentration 10 μM) | Melanin Production (Mouse B16 melanoma cells; sample concentration 20 μM) | Concentration enhancing differentiation of precursor lipocyte into mature lipocyte [2] | Enhancing effect on differentiation into lipocyte ([2]; sample 5 μM) | Enhancing effect on differentiation into lipocyte ([2]; sample 20 μM) | Enhancing effect on lipid hydrolysis ([3]; sample 5 μM) | Enhancing effect on lipid hydrolysis ([3]; sample 20 μM) | Enhancing effect on lipid hydrolysis ([3]; sample 80 μM) | further results
1 | O=c1cc(CO)occ1O [Koji cid, koji acid, reference compound] |  |  |  |  |  |  |  |  |  |  |  |  | Determination of whitening effect (Mouse B16 melanoma cells; sample concentration 1 mM): +; Determination of whitening effect (Mouse B16 melanoma cells; sample concentration 2 mM): ++; Determination of whitening effect (Mouse B16 melanoma cells; sample concentration 4 mM): +++; Melanin Production (Mouse B16 melanoma cells; sample concentration 1 mM): 57.1 μg/mg-cell protein; Melanin Production (Mouse B16 melanoma cells; sample concentration 2 mM): 47.5 μg/mg-cell protein; Melanin Production (Mouse B16 melanoma cells; sample concentration 4 mM): 37.7 μg/mg-cell protein
2 | OCC1O[C@H](Oc2ccc3c(c2)OC[C@H](c2ccc(O)cc2)C3)[C@@H](O)C(O)[C@@H]1O (stereo partly drawn) [7-O-α-D-glucopyranosyl-S-equol] | + | + | ++ | 54.8 μg/mg-cell protein | 48.4 μg/mg-cell protein | 43.0 μg/mg-cell protein | 80 µM | 96% | 101% | 265 μg/mg-cell protein | 312* μg/mg-cell protein | 374* μg/mg-cell protein | Condition of the skin after application [1]: no rough dry skin or rubor; EC50 (Mouse B16 melanoma cells): 27.3 µM; Enhancing effect on differentiation into lipocyte ([2]; sample 80 μM): 253* %
3 | OC[C@H]1O[C@H](Oc2ccc3c(c2)OC[C@@H](c2ccc(O)cc2)C3)[C@H](O)[C@@H](O)[C@@H]1O [7-O-α-D-glucopyranosyl-R-equol] |  |  |  |  |  |  |  |  |  |  |  |  | Condition of the skin after application [4]: no rough dry skin or rubor
4 | OC[C@H]1O[C@H](Oc2ccc([C@@H]3COc4cc(O)ccc4C3)cc2)[C@H](O)[C@@H](O)[C@@H]1O [4′-O-α-D-glucopyranosyl-R-equol] |  |  |  |  |  |  |  |  |  |  |  |  | Condition of the skin after application [4]: no rough dry skin or rubor
5 | OCC1O[C@H](Oc2ccc([C@H]3COc4cc(O)ccc4C3)cc2)[C@@H](O)C(O)[C@@H]1O (stereo partly drawn) [4′-O-α-D-glucopyranosyl-S-equol] | + | + | ++ | 57.1 μg/mg-cell protein | 55.0 μg/mg-cell protein | 48.2 μg/mg-cell protein | 80 µM | 92% | 107% | 272 μg/mg-cell protein | 320* μg/mg-cell protein | 401* μg/mg-cell protein | Condition of the skin after application [1]: no rough dry skin or rubor; EC50 (Mouse B16 melanoma cells): 38.8 µM; Enhancing effect on differentiation into lipocyte ([2]; sample 80 μM): 217* %
6 | Oc1ccc(C2COc3cc(O)ccc3C2)cc1 (centres unmarked) [Equol, equol] | ++ | +++ | +++ | 36.8 μg/mg-cell protein | 30.7 μg/mg-cell protein | 29.8 μg/mg-cell protein | ≥ 5 µM | 194* % | 430* % | 392* μg/mg-cell protein | 679* μg/mg-cell protein | 1119* μg/mg-cell protein | Whitening efficiency compared to positive control (Mouse B16 melanoma cells; equol 5 μM to 20 μM, Table 2): approximately the same as that of 1 mM koji acid; Concentration enhancing degradation of triglyceride accumulated in lipocyte ([3]; Table 3, compared to control): ≥ 5 µM
7 | S-equol |  |  |  |  |  |  |  |  |  |  |  |  | Estrogenic activity according to the affinity to the receptor (estrogen-receptor): higher than that of R-equol
